The target of one assay is T1, gastrin receptor (Rattus norvegicus, UniProt P30553).
T1 construct: The stomach was excised and flushed with ca. 1 ml of unbuffered physiological saline solution; from tissue; host or cells: isolated whole stomach of immature rats (ca. 21 days old)
T1 sequence (P30553 1-452): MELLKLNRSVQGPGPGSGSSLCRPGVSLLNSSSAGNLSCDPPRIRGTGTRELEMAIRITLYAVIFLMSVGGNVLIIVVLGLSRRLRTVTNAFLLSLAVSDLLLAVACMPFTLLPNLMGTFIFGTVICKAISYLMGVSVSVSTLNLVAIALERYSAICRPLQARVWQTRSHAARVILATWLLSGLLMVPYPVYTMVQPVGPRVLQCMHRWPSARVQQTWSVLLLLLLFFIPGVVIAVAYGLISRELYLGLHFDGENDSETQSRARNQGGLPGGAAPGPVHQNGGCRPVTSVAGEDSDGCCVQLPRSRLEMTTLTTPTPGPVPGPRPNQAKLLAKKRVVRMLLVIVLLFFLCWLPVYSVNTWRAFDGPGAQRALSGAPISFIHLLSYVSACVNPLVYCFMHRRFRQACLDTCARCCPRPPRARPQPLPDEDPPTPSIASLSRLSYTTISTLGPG
As to the kind of experiment: gastrin antagonist activity in immature rat stomach assay (pentagastrin dose-response, acid secretion). The following applies: isolated immature rat stomach, cumulative pentagastrin dose-response curves; for Kb: read-out: Gastrin pKb (converted). Put shortly:
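Gastrin antagonism was measured as the effect on cumulative pentagastrin dose-response curves of acid output, recorded by pH electrode in the perfusate of an excised immature rat stomach (ca. 21 days old). Test compound was placed in the serosal bath (37°, 3×10^−8 M 5-methylfurmethide) 60 min before pentagastrin.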

The target in the next assay is T2, CCKB receptor (Mus musculus, UniProt P56481).
T2 construct: The whole brains from male mice (CD1 22-25 g; Charles River) were removed; from tissue; host or cells: cerebral cortex membranes of male CD1 mice
T2 sequence (P56481 1-453): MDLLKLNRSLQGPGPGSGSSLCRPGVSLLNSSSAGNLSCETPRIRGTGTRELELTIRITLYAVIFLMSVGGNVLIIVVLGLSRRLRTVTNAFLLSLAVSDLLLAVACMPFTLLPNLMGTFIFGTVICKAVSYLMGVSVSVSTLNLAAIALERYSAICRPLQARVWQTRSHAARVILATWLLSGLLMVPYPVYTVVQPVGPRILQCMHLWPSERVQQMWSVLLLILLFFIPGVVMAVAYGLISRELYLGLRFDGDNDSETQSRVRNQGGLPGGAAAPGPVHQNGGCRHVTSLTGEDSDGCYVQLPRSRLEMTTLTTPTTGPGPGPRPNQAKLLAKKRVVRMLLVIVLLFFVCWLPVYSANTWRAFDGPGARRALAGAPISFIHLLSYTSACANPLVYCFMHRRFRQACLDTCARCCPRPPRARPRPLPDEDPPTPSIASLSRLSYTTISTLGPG
As to the kind of experiment: CCKB receptor radioligand binding assay in mouse cortical membranes. The following applies: [125I]-CCK8(S) 200 pM, 150 min at 21±3°; for Ki: read-out: CCKB pKi (converted). The method in brief: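 Bound radioactivity was gamma-counted after rapid GF/B filtration and cold 50 mM Tris-HCl (pH 7.4) washes. The tissue was cerebral cortex from male CD1 mice, prepared as twice-centrifuged membranes in pH 7.2 HEPES/NaCl/KCl/MgCl2/EDTA buffer with bacitracin at 20 mg/ml original wet weight.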

On to “5-[(2-Cycloheptylmethyl--phenyl-1H-pyrrole-3-carbonyl)-amino]-isophthalic Acid [Example 13]”, for which the “Gastrin pKb” value at gastrin receptor is listed as 6.21. Also, the “CCKB pKi” value at CCKB receptor is on record as 6.44.

With `CC1(C)C2CC[C@]1(C)C(c1nc(C(=O)Nc3cccc(C(=O)O)c3)c(CCC34CC5CC(CC(C5)C3)C4)[nH]1)C2` (mixture of isomers) [Example 205, 3-{[5-(2-Adamantan-1-yl-ethyl)-2-[(1R,2RS)-1,7,7-trimethyl-bicyclo[2.2.1]hept-2-yl]-1H-imidazole-4-carbonyl]-amino}-benzoic Acid], the Kb at gastrin receptor was 0.00832 µM. In addition, the Ki on CCKB receptor was 0.0479 µM.

For the compound `O=C(O)c1cccc(NC(=O)c2nc(C3CC4CCC3C4)[nH]c2CCC23CC4CC(CC(C4)C2)C3)c1` (racemic) [Example 114, (±)-endo-3-{[5-(2-Adamantan-1-yl-ethyl)-2-bicyclo[2.2.1]hept-2-yl-1H-imidazole-4-carbonyl]-amino}-benzoic Acid], the Kb on gastrin receptor was 0.00224 µM. At CCKB receptor, the Ki was 0.0316 µM.

For the compound `O=C(O)c1cccc(NC(=O)c2nc(C3CC4CCC3C4)[nH]c2CCC23CC4CC(CC(C4)C2)C3)c1` (racemic) [Example 115, (±)-exo-3-{[5-(2-Adamantan-1-yl-ethyl)-2-bicyclo[2.2.1]hept-2-yl-1H-imidazole-4-carbonyl]-amino}-benzoic Acid], the Kb at gastrin receptor was 0.00631 µM. In addition, at CCKB receptor, the Ki was 0.0257 µM.

As for `O=C(O)c1cccc(NC(=O)c2nc(C3CC4C=CC3C4)[nH]c2CCC23CC4CC(CC(C4)C2)C3)c1` (racemic) [Example 116, (±)-endo-3-{[5-(2-Adamantan-1-yl-ethyl)-2-bicyclo[2.2.1]hept-5-ene-2-yl-1H-imidazole-4-carbonyl]-amino}-benzoic Acid], at gastrin receptor, the Kb was 0.00214 µM. Also, the Ki on CCKB receptor is 0.0135 µM.

Take `O=C(O)c1cccc(NC(=O)c2nc(C3CC4C=CC3C4)[nH]c2CCC23CC4CC(CC(C4)C2)C3)c1` (racemic) [Example 117, (±)-exo-3-{[5-(2-Adamantan-1-yl-ethyl)-2-bicyclo[2.2.1]hept-5-ene-2-yl-1H-imidazole-4-carbonyl]-amino}-benzoic Acid]: the Kb at gastrin receptor is 0.00363 µM. Moreover, the Ki at CCKB receptor is 0.0363 µM.

As to `CC(Cc1[nH]c(C2CCCCC2)nc1C(=O)Nc1cccc(C(=O)O)c1)C12CC3CC(CC(C3)C1)C2` (racemic) [Example 132, (±)-3-{[5-(2-Adamantan-1-yl-propyl)-2-cyclohexyl-1H-imidazole-4-carbonyl]-amino}-benzoic Acid], on gastrin receptor, the Kb is 0.00813 µM. Further, on CCKB receptor, the Ki was 0.0427 µM.

Regarding `Cc1ccc(NC(=O)c2nc(C3CC4CCC3C4)[nH]c2CCC23CC4CC(CC(C4)C2)C3)cc1C(=O)O` (racemic) [Example 209, (±)-endo-5-{[5-(2-Adamantan-1-yl-ethyl)-2-bicyclo[2.2.1]hept-2-yl-1H-imidazole-4-carbonyl]-amino}-2-methyl-benzoic Acid], the Kb on gastrin receptor is 0.0011 µM. The Ki at CCKB receptor was 0.00209 µM.

`CC(C(=O)O)c1cccc(NC(=O)c2nc(C3CCCCC3)[nH]c2CCC23CC4CC(CC(C4)C2)C3)c1` (racemic) [Example 255, (±)-2-(3-{[5-(2-Adamantan-1-yl-ethyl)-2-cyclohexyl-1H-imidazole-4-carbonyl]-amino}-phenyl)-propionic Acid]: the Kb on gastrin receptor is 0.178 µM. Moreover, the Ki at CCKB receptor is 0.00141 µM.

`O=C(O)c1cc(NC(=O)c2cc(-c3ccccc3)[nH]c2CC23CC4CC(CC(C4)C2)C3)cc(C(=O)O)c1` [Example 1, 5-[(2-Adamantan-1-ylmethyl-5-phenyl-1H-pyrrole-3-carbonyl)-amino]-isophthalic Acid]: on gastrin receptor, the Kb is 0.468 µM. In addition, the Ki on CCKB receptor is 0.191 µM.

Regarding `O=C(O)c1cc(NC(=O)c2cc(-c3ccc4ccccc4c3)[nH]c2CC23CC4CC(CC(C4)C2)C3)cc(C(=O)O)c1` [Example 4, 5-[(2-Adamantan-1-ylmethyl-5-naphthalen-2-yl-1H-pyrrole-3-carbonyl)-amino]-isophthalic Acid], the Kb at gastrin receptor is 1.62 µM. The Ki at CCKB receptor is 0.0871 µM.

On to `O=C(O)c1cc(NC(=O)c2cc(-c3ccc4ccccc4c3)[nH]c2CC2CCCCCC2)cc(C(=O)O)c1` [Example 11, 5-[(2-Cycloheptylmethyl-5-naphthalene-2-yl-1H-pyrrole-3-carbonyl)-amino]-isophthalic Acid], for which the Kb at gastrin receptor was 1.62 µM. For the same compound, the Ki on CCKB receptor is 0.0871 µM.

Turning to `O=C(O)c1cccc(NC(=O)c2cc(-c3ccccc3)[nH]c2CC2CCCCCC2)c1` [Example 12, 3-[(2-Cycloheptylmethyl-5-phenyl-1H-pyrrole-3-carbonyl)-amino]-benzoic Acid], at gastrin receptor, the Kb was 1 µM. Besides, on CCKB receptor, the Ki is 1.12 µM.

For the compound `O=C(O)c1cc(NC(=O)c2[nH]c(-c3ccccc3)nc2CC2CCCCCC2)cc(C(=O)O)c1` [Example 24, 5-[(5-Cycloheptylmethyl-2-phenyl-1H-imidazole-4-carbonyl)-amino]-isophthalic Acid], on gastrin receptor, the Kb was 0.479 µM. Also, the Ki on CCKB receptor was 1 µM.

As for `O=C(O)c1cccc(NC(=O)c2nc(-c3ccccc3)[nH]c2CC2CCCCCC2)c1` [Example 26, 3-[(5-Cycloheptylmethyl-2-phenyl-1H-imidazole-4-carbonyl)-amino]-benzoic Acid], the Kb on gastrin receptor is 0.407 µM. The Ki at CCKB receptor was 1.48 µM.

On to `Cc1ncccc1-c1nc(C(=O)Nc2cccc(C(=O)O)c2)c(CCC23CC4CC(CC(C4)C2)C3)[nH]1` [Example 181, 3-{[5-(2-Adamantan-1-yl-ethyl)-2-(2-methyl-pyridine-3-yl)-1H-imidazole-4-carbonyl]-amino}-benzoic Acid], for which the Ki on CCKB receptor was 0.676 µM.

Take `Cc1ccccc1-c1nc(C(=O)Nc2cc(C(=O)O)ccc2Cl)c(CCC23CC4CC(CC(C4)C2)C3)[nH]1` [Example 237, 3-{[5-(2-Adamantan-1-yl-ethyl)-2-o-tolyl-1H-imidazole-4-carbonyl]-amino}-4-chloro-benzoic Acid]: on CCKB receptor, the Ki is 7.59 µM.

On to `Cc1ccccc1-c1nc(C(=O)Nc2cc(C(=O)O)ccc2F)c(CCC23CC4CC(CC(C4)C2)C3)[nH]1` [Example 238, 3-{[5-(2-Adamantan-1-yl-ethyl)-2-o-tolyl-1H-imidazole-4-carbonyl]-amino}-4-fluoro-benzoic Acid], for which the Ki on CCKB receptor was 5.89 µM.

With `Cc1ccc(C(=O)O)cc1NC(=O)c1nc(-c2ccccc2C)[nH]c1CCC12CC3CC(CC(C3)C1)C2` [Example 239, 3-{[5-(2-Adamantan-1-yl-ethyl)-2-o-tolyl-1H-imidazole-4-carbonyl]-amino}-4-methyl-benzoic Acid], the Ki on CCKB receptor was 2 µM.

Turning to `Cc1ccccc1-c1nc(C(=O)Nc2ccc(C)c(C(=O)O)c2C)c(CCC23CC4CC(CC(C4)C2)C3)[nH]1` [Example 240, 3-{[5-(2-Adamantan-1-yl-ethyl)-2-o-tolyl-1H-imidazole-4-carbonyl]-amino}-2,6-dimethyl-benzoic Acid], the Ki at CCKB receptor is 0.0263 µM.

As to `Cc1ccccc1-c1nc(C(=O)Nc2cc(C(=O)O)cc(C(F)(F)F)c2)c(CCC23CC4CC(CC(C4)C2)C3)[nH]1` [Example 243, 3-{[5-(2-Adamantan-1-yl-ethyl)-2-o-tolyl-1H-imidazole-4-carbonyl]-amino}-5-trifluoromethyl-benzoic Acid], the Ki at CCKB receptor was 0.537 µM.

With `COc1ccc(NC(=O)c2nc(-c3ccccc3C)[nH]c2CCC23CC4CC(CC(C4)C2)C3)cc1C(=O)O` [Example 244, 5-{[5-(2-Adamantan-1-yl-ethyl)-2-o-tolyl-1H-imidazole-4-carbonyl]-amino}-2-methoxy-benzoic Acid], on CCKB receptor, the Ki is 0.182 µM.

In the case of `Cc1cc(NC(=O)c2nc(-c3ccccc3C)[nH]c2CCC23CC4CC(CC(C4)C2)C3)cc(C(=O)O)c1` [Example 247, 3-{[5-(2-Adamantan-1-yl-ethyl)-2-o-tolyl-1H-imidazole-4-carbonyl]-amino}-5-methyl-benzoic Acid], on CCKB receptor, the Ki was 0.302 µM.

Take `Cc1ccccc1-c1nc(C(=O)Nc2ccc(F)c(C(=O)O)c2F)c(CCC23CC4CC(CC(C4)C2)C3)[nH]1` [Example 248, 3-{[5-(2-Adamantan-1-yl-ethyl)-2-o-tolyl-1H-imidazole-4-carbonyl]-amino}-2,6-difluoro-benzoic Acid]: on CCKB receptor, the Ki was 0.0257 µM.

The values above are taken from patent publication US6479531B1, “Gastrin and cholecystokinin receptor ligands” (James Black Foundation Limited, priority 1998, dated 2002).
